Like-named read-outs stand apart in the source and are kept apart here.

In data set [1] the target is T1, VHL (Homo sapiens, UniProt P40337).
T1 construct: expressed in transfected cells
As to the kind of experiment: VHL HEK-293 BRET Assay (VHL NanoBRET Target Engagement Assay). The class given is cell-based. The note with it: IC50 values measured in the presence of digitonin; HEK 293 RT VHL-NanoLuc stable cells; read-out: IC50 + Digi (μM)*.

A further data set deals with HCC366. As to the kind of experiment: Cell Viability Assay (CellTiter-Glo). The class given is cell-based. The note with it: 10 μM, 5 days.
Data set [2] concerns the target T1, VHL. As to the kind of experiment: VHL HEK-293 BRET Assay (VHL NanoBRET Target Engagement Assay). The note with it: HEK 293 RT VHL-NanoLuc stable cells; read-out: IC50. The class given is cell-based. Here is the method: The VHL NanoBRET™ Target Engagement Assay analyzes the apparent affinity of test compounds for VHL in cells by competitive displacement of a VHL NanoBRET™ tracer reversibly bound to a NanoLuc® VHL fusion protein stably expressed in the cells.
Test compounds were transferred to the assay plate (384 Well White Non-Binding Corning Assay Plates (Corning-3574)) using an Echo 555 Liquid Handler (Labcyte) in 2.5 nL increments and, as appropriate, intermediate stock concentrations of compounds, in order to prepare a titration series. 50 nL of control compound (10 mM; parental unlabeled VHL antagonist; see structure below) and 50 nL of DMSO (negative control) were dispensed into the appropriate control wells. DMSO was backfilled to a final volume of 50 nL as required. 50 nl per well of 1 mM VHL NanoBRET™ Tracer in DMSO (NanoBRET™ Tracer-PEG2-590 (see structure below)) was transferred into each well using an Echo 555 (ultimately yielding a final concentration of 1 uM). HEK 293 RT VHL-NanoLuc® stable cells were cultured in DMEM High Glucose with Pyruvate, 10% fetal bovine serum, 2 mg/mL of Geneticin Selective Antibiotic (50 mg/mL) and 2 mM HEPES (1 M). Cells were seeded in Opti-MEM (Life Technologies-11058-021), 1.7×10^5 cells/mL, 40 μl per well into the assay plate, centrifuged at 500 rpm for 30 seconds and incubated for 2 hours. Max Signal control wells consisted of DMSO only treated wells. Minimum Signal control wells contained of 10 uM parental unlabeled VHL antagonist (control compound—see structure below). 3× Complete Substrate plus Inhibitor Solution was prepared in Opti-MEM (consists of a 1:166 dilution of NanoBRET™ Nano-Glo® Substrate plus a 1:500 dilution of Extracellular NanoLuc® Inhibitor in Opti-MEM), and 20 ul was dispensed into each well of the 384-well plate and centrifuged at 1000 rpm for 1 minute, then incubated for 2 minutes at room temperature. Background Signal control wells were prepared without tracer for background correction steps.
Plates were read using a PerkinElmer Envision Reader (model 2104-0020) equipped with Luminescence option (Mirror: BRET2 Enh (PE Barcode 659), Emission Filter: Omega 610LP (Barcode 504), 2nd Emission Filter: Umbelliferone 460 (Barcode 207), Measurement height: 6.5 mm, Measurement time: 1 s). The raw BRET ratio values were calculated by dividing the acceptor emission value (610 nm) by the donor emission value (460 nm) for each sample. To correct for background, the BRET ratio in the absence of tracer (average of no-tracer control samples) was subtracted from the BRET ratio of each sample. Raw BRET units were converted to milliBRET units (mBU) by multiplying each raw BRET value by 1,000. The normalized NanoBRET™ signal was calculated relative to the Max Signal control wells (DMSO treated control wells) and the Minimum Signal control wells. Percentage inhibition was calculated relative to the Minimum Signal control and Maximum Signal control wells. IC50 values were derived by four parameter curve fitting using the Robust method.

A further data set concerns CAL-120. As to the kind of experiment: Cell Viability Assay (CellTiter-Glo). The note with it: 5 days. For orientation: Cellular ATP, detected with luciferase, serves as a proxy for viable cell number.
The subject of another data set is PANC-1. As to the kind of experiment: Cell Viability Assay (CellTiter-Glo). It is filed as cell-based. The note with it: 10 μM, 5 days.
The subject of a further data set is NCI-H2030. As to the kind of experiment: Cell Viability Assay (CellTiter-Glo). It is filed as cell-based. The note with it: 5 days.
In the next data set the test system is NCI-H23. As to the kind of experiment: Cell Viability Assay (CellTiter-Glo). It is filed as cell-based. The note with it: 10 μM, 5 days.

T1 sequence (P40337 whole entry): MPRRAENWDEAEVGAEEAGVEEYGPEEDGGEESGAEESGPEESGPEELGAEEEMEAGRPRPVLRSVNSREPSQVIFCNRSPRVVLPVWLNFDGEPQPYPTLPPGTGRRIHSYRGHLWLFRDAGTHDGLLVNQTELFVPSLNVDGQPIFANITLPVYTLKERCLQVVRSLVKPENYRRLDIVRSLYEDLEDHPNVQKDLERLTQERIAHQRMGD
Experimental for CAL-120: (§1) Cell lines were cultured in RPMI-1640, 5% fetal bovine serum, and 2 mM glutamine in a humidified incubator maintained at 37° C. with 5% CO2. Cells were assessed with a Vi-CELL Cell Viability Analyzer (Beckman Coulter; Brea, CA); viability of at least 90% was required for screening. A Multidropä Combi Reagent Dispenser (Thermo Scientific; Waltham, MA) was used to plate cells into Falcons^â 384-well, black, clear-bottom plates (Catalog No. 353962; Corning; Tewksbury, MA) using seeding densities previous determined to achieve approximately 80% confluence at the final time point of the assay. The compounds were prepared at 1000× in advance using an Echo 555 liquid handler (Labcyte; Sunnyvale, CA) and stored in −80° C. until the day of compound addition. On the following day, cells were treated with compounds at final assay concentration 1 uM and 10 uM using a Bravo Automated Liquid-Handling Platform (Agilent; Santa Clara, CA). After 5 days, 25 mL CellTiter-Glo^â reagent was added using a MultiFloä Microplate Dispenser (BioTek; Winooski, VT). Cell lysis was induced by mixing for 30 minutes on an orbital shaker; plates were then incubated at room temperature for 10 minutes to stabilize the luminescent signal. Luminescence was read by a 2104 EnVision^â Multilabel Plate Reader (PerkinElmer; Waltham, MA).
(§2) The data was processed using Genedata Screener^â, Version 15 (Genedata; Basel, Switzerland) to assess compound effects on viability. Compound treated wells were normalized to the median value of 14 DMSO control wells on the same 384 well plate.
Experimental for HCC366: as §1, §2
Experimental for NCI-H2030: as §1, §2
Experimental for NCI-H23: as §1, §2
Experimental for PANC-1: as §1, §2

`Cc1ccc(N2CCC[C@H]2CNC(=O)[C@@H]2C[C@@H](O)CN2C(=O)[C@@H](n2cc(C3CC3)nn2)C(C)(C)C)cc1` [Compound 462, (2S,4R)-1-[(2S)-2-(4-cyclopropyltriazol-1-yl)-3,3-dimethyl-butanoyl]-4-hydroxy-N-[[(2S)-1-(p-tolyl)pyrrolidin-2-yl]methyl]pyrrolidine-2-carboxamide]: the IC50 (as a rule, the point on the concentration scale where inhibition reaches its midpoint) on VHL [1] is 5.35 µM; on VHL [2], 2.82 µM. Besides, the “Normalized viability % DMSO” value in the data set on HCC366 was 11.3 % DMSO.
`CNC(=O)[C@@H]1C[C@@H](O)CN1C(=O)[C@@H](n1cc(CN(C)c2ccccc2)nn1)C(C)(C)C` [Compound 842, (2S,4R)-1-[(2S)-3,3-dimethyl-2-[4-[(N-methylanilino)methyl]triazol-1-yl]butanoyl]-4-hydroxy-N-methyl-pyrrolidine-2-carboxamide]: the “Normalized viability % DMSO” value in the data set with CAL-120 (1 μM) is given as 18.5 % DMSO.
With `CC(C)(C)[C@@H](C(=O)N1C[C@H](O)C[C@H]1C(=O)NC1CCN(c2ccc(Cl)c(Cl)c2)C1)n1cc(C2CC2)nn1` (stereo partly drawn) [Compound 463, (2S,4R)-1-[(2S)-2-(4-cyclopropyltriazol-1-yl)-3,3-dimethyl-butanoyl]-N-[1-(3,4-dichlorophenyl)pyrrolidin-3-yl]-4-hydroxy-pyrrolidine-2-carboxamide], the IC50 is 4.86 µM on VHL [1] and 3.68 µM at VHL [2]. The “Normalized viability % DMSO” value with PANC-1 amounted to 35.6 % DMSO.
Consider `CC(C)(NC(=O)[C@@H]1C[C@@H](O)CN1C(=O)[C@@H](n1cc(C2CC2)nn1)C(C)(C)C)c1cccc(C#N)c1` [Compound 561, (2S,4R)-N-[1-(3-cyanophenyl)-1-methyl-ethyl]-1-[(2S)-2-(4-cyclopropyltriazol-1-yl)-3,3-dimethyl-butanoyl]-4-hydroxy-pyrrolidine-2-carboxamide], for which the half-inhibitory concentration (IC50) turned out to be 1.64 µM at VHL [1] and 0.928 µM at VHL [2]. In addition, the “Normalized viability % DMSO” value in the data set with HCC366 is 12.5 % DMSO.
For the molecule `CC(Cc1ccc(Br)cc1F)NC(=O)[C@@H]1C[C@@H](O)CN1C(=O)[C@@H](n1cc(C2CC2)nn1)C(C)(C)C` (stereo partly drawn) [Compound 556, (2S,4R)-N-[2-(4-bromo-2-fluoro-phenyl)-1-methyl-ethyl]-1-[(2S)-2-(4-cyclopropyltriazol-1-yl)-3,3-dimethyl-butanoyl]-4-hydroxy-pyrrolidine-2-carboxamide], the results for the IC50 at VHL [1] and at VHL [2] were 2.52 µM and 0.55 µM, respectively. Besides, in the data set on NCI-H2030 (10 μM), the “Normalized viability % DMSO” value is reported as 50.4 % DMSO.
`CC(C)(C)[C@@H](C(=O)N1C[C@H](O)C[C@H]1C(=O)NC1CC12CCc1cc(Br)ccc12)n1cc(C2CC2)nn1` (stereo partly drawn) [Compound 266, (2S,4R)-N-(5′-bromospiro[cyclopropane-2,1′-indane]-1-yl)-1-[(2S)-2-(4-cyclopropyltriazol-1-yl)-3,3-dimethyl-butanoyl]-4-hydroxy-pyrrolidine-2-carboxamide]: the results for the 50% inhibitory concentration (IC50) on VHL [1] and at VHL [2] were 9.5 µM and 3.69 µM, respectively. Also, the “Normalized viability % DMSO” value in the data set on PANC-1 turned out to be 27.6 % DMSO; with CAL-120 (10 μM) it was 46.4 % DMSO; in the data set with NCI-H23, 37.6 % DMSO; in the data set on NCI-H2030 (10 μM), 31.8 % DMSO.
Regarding `CNC(=O)[C@@H]1C[C@@H](O)CN1C(=O)[C@@H](n1cc(-c2cccc(C(F)(F)F)c2)nn1)C(C)(C)C` [Compound 974, (2S,4R)-1-[(2S)-3,3-dimethyl-2-[4-[3-(trifluoromethyl)phenyl]triazol-1-yl]butanoyl]-4-hydroxy-N-methyl-pyrrolidine-2-carboxamide], the “Normalized viability % DMSO” value in the data set with NCI-H2030 (1 μM) is reported as 15.3 % DMSO.
On to `CCC(NC(=O)[C@@H]1C[C@@H](O)CN1C(=O)[C@@H](n1cc(C2CC2)nn1)C(C)(C)C)c1noc(-c2cccc(Br)c2)n1` (stereo partly drawn) [Compound 617, (2S,4R)-N-[1-[5-(3-bromophenyl)-1,2,4-oxadiazol-3-yl]propyl]-1-[(2S)-2-(4-cyclopropyltriazol-1-yl)-3,3-dimethyl-butanoyl]-4-hydroxy-pyrrolidine-2-carboxamide], for which the values for the IC50 at VHL [1] and on VHL [2] were 1.35 µM and 0.829 µM, respectively. The “Normalized viability % DMSO” value in the data set on PANC-1 came to 69.8 % DMSO.
On the same counts, the results for `CCC(CNC(=O)[C@@H]1C[C@@H](O)CN1C(=O)[C@@H](n1cc(C2CC2)nn1)C(C)(C)C)Oc1cccc(C(F)(F)F)c1` (stereo partly drawn) [Compound 493, (2S,4R)-1-[(2S)-2-(4-cyclopropyltriazol-1-yl)-3,3-dimethyl-butanoyl]-4-hydroxy-N-[2-[3-(trifluoromethyl)phenoxy]butyl]pyrrolidine-2-carboxamide] are 5.56 µM, 3.68 µM and 51.8 % DMSO.
`CNC(=O)[C@@H]1C[C@@H](O)CN1C(=O)[C@@H](n1cc(CN2CCC(C(=O)OC)CC2)nn1)C(C)(C)C` [Compound 1059, methyl 1-[[1-[(1S)-1-[(2S,4R)-4-hydroxy-2-(methylcarbamoyl)pyrrolidine-1-carbonyl]-2,2-dimethyl-propyl]triazol-4-yl]methyl]piperidine-4-carboxylate]: the half-maximal inhibitory concentration (IC50) amounted to 7.47 µM on VHL [1] and 18.2 µM at VHL [2]. Further, the “Normalized viability % DMSO” value in the data set on CAL-120 (10 μM) worked out at 18.1 % DMSO; in the data set on NCI-H2030 (10 μM), 12.7 % DMSO.
Take `CC(C)(C)[C@@H](C(=O)N1C[C@H](O)C[C@H]1C(=O)NC1CN(c2ccncc2)C1)n1cc(C2CC2)nn1` [Compound 445, (2S,4R)-1-[(2S)-2-(4-cyclopropyltriazol-1-yl)-3,3-dimethyl-butanoyl]-4-hydroxy-N-[1-(4-pyridyl)azetidin-3-yl]pyrrolidine-2-carboxamide]: the IC50 came out at 22.3 µM at VHL [1] and 26.7 µM on VHL [2]. Also, the “Normalized viability % DMSO” value in the data set with HCC366 was 5.2 % DMSO.
The matching figures for `CC(C)(C)[C@@H](C(=O)N1C[C@H](O)C[C@H]1C(=O)N[C@H]1CC[C@H](c2nc3ccccc3o2)CC1)n1cc(C2CC2)nn1` [Compound 106, (2S,4R)-N-[4-(1,3-benzoxazol-2-yl)cyclohexyl]-1-[(2S)-2-(4-cyclopropyltriazol-1-yl)-3,3-dimethyl-butanoyl]-4-hydroxy-pyrrolidine-2-carboxamide]: 4.41 µM, 3.37 µM and 6.0 % DMSO.

Values taken from patent publication US20230295145A1, “PYRROLIDINE DERIVATIVES AND METHODS OF USE” (Genentech, Inc., priority 2020, published 2023).
